Assay results published in patent US20110064773A1, “PHARMACEUTICAL COMPOSITIONS COMPRISING A THYROID HORMON AND THEIR THERAPEUTIC USE” (UNIVERSITE JOSEPH FOURIER, priority 2007, published 2011).
Entries after “also recorded” stand apart in the source; their conditions may differ.

Tests used:
Wistar rats [1] = experiment: Plasma concentrations of glucose, triglycerides, cholesterol, FFA and HDL in Wistar rats; format: in vivo, rat; details: for Glycerol (FIG. 60C), plasma / HDL (FIG. 60D), plasma: 21 days
From the text: These measurements were done on venous blood of the rats the day of the sacrifice.
(§1) At the end of the experimental period, animals were sacrificed by decapitation, in order to avoid the well-known effects of general anesthetics on mitochondrial metabolism. Blood samples were immediately collected and plasma was frozen for subsequent determination of serum metabolites and hormones. Liver, muscles and fat depots were quickly excised and weighed. Liver median lobe was rapidly freeze-clamped. Muscles (plantaris, soleus and gastrocnemius) were frozen in isopentane precooled in liquid nitrogen. Mesenteric fat consisted of adipose tissue surrounding the gastro-intestinal tract from the gastro-oesophageal sphincter to the end of the rectum with special care taken in distinguishing and removing the pancreas. Retroperitoneal fat pad was taken as the distinct depot behind each kidney along the lumbar muscles. Epididymal fat consisted of adipose tissue on top of the epididymis. For subcutaneous depot measurement, a rectangular piece of skin was taken on the right side of each animal from the median line of the abdomen between the spine and the right hip to the first rib. Interscapular brown adipose tissue was removed and dissected free from adjacent muscles and white adipose tissue. The heart ventricles, the right kidney and the spleen were also excised, weighed and frozen.
(§2) Glucose and 3-hydroxybutyrate (3-HB) were measured enzymatically and non esterified fatty acid (NEFA) by colorimetric assay (Wako Chemicals).
(§3) Triglycerides and cholesterol were measured by classical routine automate apparatus.

[2] = test system: mitochondrial glycerol 3-phosphate dehydrogenase (mGPdH); experiment: Mitochondrial glycerol 3-phosphate dehydrogenase (mGPdH) activity in liver mitochondria of treated rats; format: in vivo, rat; details: Wistar rats; for Mitochondrial GPdH activity: 2.5 μg/100 g continuous, 21 days
Method: Mitochondrial glycerol 3-phosphate dehydrogenase (mGPdH) activity was measured on the supernatant of isolated mitochondria after three cycles of freezing-thawing. Forty μg of mitochondria were incubated in a KH2PO4/K2HPO4 buffer (50 mM, pH 7.5) containing 9.3 μM of antimycin A, 5 μM of rotenone and decylubiquinone (50 μM). The reduction of 50 μM dichloro-indophenol (DCIP) by mGPDH was measured spectrophotometrically at 600 nm at 37° C. and enzymatic activity was expressed as μmol·min^−1·mg prot^−1.

ZDF rats [3] = experiment: Body composition of ZDF rats; format: in vivo, rat
From the text: as §1

ZDF rats [4] = experiment: Plasma lipid profiles of ZDF rats; format: in vivo, rat; details: 2.5 μg/100 g BW, day of sacrifice
From the text: as §1, §2, §3
To better understand the lipid metabolism, lipid profiles of free fatty acid (FFA, FIG. 29), triglycerides (FIG. 30), cholesterol (FIG. 31) and high density lipoprotein (HDL, FIG. 32) were analysed.

GK rats = experiment: Oral glucose tolerance test (OGTT) and pancreas mass in GK rats; format: in vivo, rat; details: 2.5 μg/100 g BW
Method: GK rats are diabetic non obese with moderate insulin-resistance, and have lower pancreatic cells than control rats. The pancreatic cells are also less efficient in the insulin secretion.
The glucose resistance of these animals was tested by an oral glucose tolerance test (OGTT) Animals were fed with 2 g/kg BW of glucose and the Glucose concentration and Insulin concentration in blood were measured.
The glucose concentration (FIG. 40) and insulin concentration (FIG. 41) were then measured for this time.

Wistar rats [5] = experiment: De novo hepatic lipogenesis (stable isotopes); format: in vivo, rat; details: rT3 2.5 μg/100 g BW
From the text: To confirm this point, the rate of endogenous triglyceride synthesis by using stable isotopes has been assessed.

Wistar rats [6] = experiment: Wistar rats treated with PTU and IOP (deiodinase inhibition, hypothyroid state) with or without rT3; format: in vivo, rat
Method: Thyroid Stimulating Hormone (TSH) and thyroxine (T4) were measured by radioimmunoassay with rat standards (RPA 554 Amersham bioscience, RIA FT4-immunotech, for TSH and T4 respectively).
In order to understand the mode of action of the treatments, Wistar rats were treated with pharmacological products that inhibit the synthesis and deiodination of thyroid hormones PTU and IOP.
Animals (Wistar) were submitted to a treatment by propyl-thiouracile (PTU in the drinking water) and iopanoic acid (IOP one sc-injection weekly) inducing a complete inhibition of all deiodinases (types I, II and III). Such treatment is responsible for the induction of a severe hypothyroid state. In addition this treatment impairs the peripheral metabolism of all thyroid hormones by deiodination. Some rats were also submitted to a sub-cutaneous administration of rT3 (2.5 μg/100 g). Three groups were constituted: controls, PTU+IOP and PTU+IOP+rT3 and duration of the experiment was 3 weeks.

[7] = test system: nuclear receptors of the thyroid hormones, TRα-1 and TRβ-1; details: literature statements; cited from earlier work
[8] = Wistar rats, high dosage 25 μg/100 g BW
[9] = Wistar rats, high dose 250 μg/kg BW/day, day of sacrifice, vs placebo
[10] = Wistar rats, low dosage 2.5 μg/100 g BW
[11] = 2 g/kg glucose, 3 hours, vs placebo
[12] = PTU+IOP alone vs placebo, or rT3 2.5 μg/100 g added to PTU+IOP
[13] = PTU+IOP alone, or rT3 (2.5 μg/100 g) added to PTU+IOP

## N[C@@H](Cc1ccc(Oc2cc(I)c(O)c(I)c2)c(I)c1)C(=O)O [rT3, 3′,5′,3-triiodothyronine]
Wistar rats [1]; Wistar rats, 250 μg/kg BW/day, day of sacrifice, vs placebo
  Cholesterol plasmatic concentration: significantly lower
Wistar rats [1]; [8]
  Glycerol (FIG. 60C), plasma: reduction
  HDL (FIG. 60D), plasma: reduction
Wistar rats [1]; [9]
  Plasma free fatty acids (FFA): higher; also recorded: stimulates the liberation of FFA
  Triglycerides plasmatic concentration: significantly lower; also recorded: degradation of triglycerides
Wistar rats [1]; [10]
  Glycerol (FIG. 60C), plasma: reduction
  HDL (FIG. 60D), plasma: reduction
Wistar rats [1]; normal (non diabetic) Wistar rats, 250 μg/kg BW/day, day of sacrifice, vs placebo
  Fasting glucose plasmatic concentration: slightly increased
[2]; liver mitochondria, high dose 25 μg/100 g
  Enzymatic activity of mitochondrial glycerol-3-phosphate dehydrogenase: significantly increased
[2]; liver mitochondria, low dose 2.5 μg/100 g, sub-cutaneous pellet
  Enzymatic activity of mitochondrial glycerol-3-phosphate dehydrogenase (mGPdH): significantly increased; also recorded: more enhanced
[2]; intra-peritoneal pump
  Mitochondrial GPdH activity: enhanced
[2]; sub-cutaneous pump
  Mitochondrial GPdH activity: enhanced
ZDF rats [3]; 2.5 μg/100 g BW
  Brown adipose tissue mass: increase
  Muscular mass: not affected
  White adipose tissue: seems not to be affected
ZDF rats [3]; low dose of rT3, 21 days, vs placebo
  Fat mass (photography, FIG. 21): reduced
ZDF rats [4]
  Cholesterol level: not influenced
  FFA in blood: significantly enhanced
  Triglycerides in blood: significantly reduced
GK rats; [11]
  AUC of the glucose concentration after OGTT: significantly reduced
  AUC of the insulin concentration after OGTT: largely enhanced
GK rats; 5 first minutes following the OGTT
  Kinetic of blood glucose concentration after OGTT: regulate more rapidly
GK rats; 20 min kinetic
  Kinetic of insulin concentration after OGTT: increase
GK rats; vs placebo
  Pancreas mass: increase
Wistar rats [5]; day and night, effect maximal during the day
  Endogenous (liver) synthesis of lipids: powerful stimulation
Wistar rats [5]; vs placebo
  Hepatic lipogenesis, increase: ~4 fold
Wistar rats [6]; 3 weeks, PTU+IOP alone vs controls, or rT3 2.5 μg/100 g sc added to PTU+IOP
  Animal mass (body weight): enhances the decrease induced by PTU-IOP
Wistar rats [6]; 3 weeks, PTU-IOP with or without rT3 2.5 μg/100 g
  Appetite (food intake): remains unchanged
Wistar rats [6]; [12]
  Energy expenditure (EE): enhanced
  Respiratory quotient (RQ): enhanced
Wistar rats [6]; [13]
  Activity of mGPdH: stimulates
  Brown adipose tissue mass: also enhanced
  Mitochondrial state 3 respiratory rate with GM, S and GMS: corrected the effect of PTU+IOP
[7]
  Binding to the nuclear (TH) receptors: very little affinity
